Assay results: patent publication US20190083420A1, “METHODS OF USING (2R, 6R)-HYDROXYN[…] (2S, 6S)-HYDROXYN[…] THE TREATMENT OF DEPRESSION, ANXIETY, ANHEDONIA, FATIGUE, SUICIDAL IDEATION, AND POST TRAUMATIC STRESS DISORDERS” (The Uinited States of America, as represented by the …, priority 2016, published 2019)
Entries after “also recorded” stand apart in the source; their conditions may differ.

Legend:
Type in all cases: in vivo
male CD-1 mice = test: Learned helplessness (LH); details: single injection
From the text: Male CD-1 mice (8-10 weeks old, Charles River Laboratories, Mass., USA) were housed in groups of four-five per cage with a constant 12-hour light/dark cycle (lights on/off at 07:00/19:00). Food and water were available ad libitum. Mice acclimatized to the new environment for seven days prior to the start of the experiments. For the whole-cell NMDA current electrophysiological recordings, male Sprague-Dawley rats (housed three per cage; Charles River, Wilmington, Mass.) were used. EPSC recording were done from rats at postnatal day 24-25. All experimental procedures were approved by the University of Maryland, Baltimore Animal Care and Use Committee and were conducted in full accordance with the National Institutes of Health Guide for the Care and Use of Laboratory Animals.
The LH paradigm consisted of three different phases, i.e., inescapable shock training, LH screening, and the LH test. For the inescapable shock portion of the test (Day 1), the animals were placed in one side of two-chambered shuttle boxes (34 cm height×37 cm width×18 cm depth; Coulbourn Instruments, PA, USA), with the door between the chambers closed. Following a five-min adaptation period, 120 inescapable foot-shocks (0.45 mA, 15 sec duration, randomized average inter-shock interval of 45 sec) were delivered through the grid floor. During the screening session (Day 2), the mice were placed in one of the two chambers of the apparatus for 5 min. A shock (0.45 mA) was then delivered, and the door between the two chambers was raised simultaneously. Crossing over into the second chamber terminated the shock. […] A total of 30 screening trials of escapable shocks were presented to each mouse with an average of 30 sec delay between each trial. Mice that developed helplessness behavior (>5 escape failures during the last 10 screening shocks) were administered with the respective drug 24 hours following screening (Day 3). During the LH test phase (Day 4), the animals were placed in the shuttle boxes and, after a 5-min adaptation period, a 0.45 mA shock was delivered concomitantly with door opening for the first five trials, followed by a 2-sec delay for the next 40 trials. Crossing over to the second chamber terminated the shock. […] A total of 45 trials of escapable shock were presented to each mouse with 30 sec inter-trial intervals. The number of escape failures was recorded for each mouse.

mice [1] = test: Accelerating rotarod (motor coordination); details: 5-60 min post-injection, i.p.
Method: The rotarod test was conducted to compare the effects of ketamine, (2S,6S)-HNK and (2R,6R)-HNK on motor coordination. The experiment consisted of two phases: training phase (4 days) and a test phase (1 day). On each of the training days five trials (trial time: 3 min) were conducted with an inter-trial interval of two min Mice were individually placed on the rotarod apparatus (HTC Life Science; Woodland Hills, Calif., USA) and the rotor (3.75 inch diameter) accelerated from 5-20 RPM over a period of three minutes. Latency to fall was recorded for each trial. Animals with an average of <100 sec of latency to fall during the last training day were excluded from the experiment. On the test day (day 5), mice received (i.p.) injections of saline, (R,S)-KET (10 mg/kg), (2S,6S)-HNK (25 or 125 mg/kg) or (2R,6R)-HNK (2.5 or 125 mg/kg) and were tested in the rotating rod 5-. 10-, 15-, 20-, 30- and 60-min post-injection using the same procedure described for the training days.

mice [2] = test: Chronic corticosterone-induced anhedonia, sucrose preference test; details: single administration, measured after 24 hours
Method: For assessing the baseline sucrose preference, mice were singly housed for 24 hours and presented with two identical bottles containing either tap water or 1% sucrose solution. Following baseline sucrose measurement, mice were re-grouped housed (5 mice per cage) and treated for 4 weeks with corticosterone (25 μg/ml equivalent) given in water bottles. Prior to initiation of any behavioral measurements, animals were weaned off corticosterone treatment; 3 days corticosterone 12.5 μg/ml and 3 days corticosterone 6.25 μg/ml, followed by 1 week of complete withdrawal from the drug. Mice were subsequently singly-housed in freshly-made home cages and provided with two bottles containing either tap water or 1% sucrose solution. Twenty-four hours later, mice that developed anhedonia phenotype (<55% sucrose preference) were treated with saline or (2R,6R)-HNK (10 mg/kg) and sucrose preference measured after an additional 24 hours.

Q: For N[C@@]1(c2ccccc2Cl)CCC[C@@H](O)C1=O [(2R,6R)-HNK, (2R,6R)-2-amino-2-(2-chlorophenyl)-6-hydroxycyclohexanone], which “doses with antidepressant-like effects in learned helplessness” value (male CD-1 mice) is on record?
A: Its value is 5 to 75 mg/kg.

Q: And the “antidepressant-like effect in learned helplessness (escape failures)” value (male CD-1 mice; test 24 hours after administration)?
A: Its value is “greater potency and longer-lasting antidepressant-like effects; also recorded: dose-dependent antidepressant-like responses; also recorded: more potent antidepressant effects; also recorded: dose-dependent antidepressant action”.

Q: And the “motor coordination in the rotarod” value (mice [1])?
A: Its value is “did not affect coordination”.

Q: What about the “reversal of chronic corticosterone-induced decrease in sucrose preference” value (mice [2]) of the same compound?
A: The value was “reversed chronic corticosterone-induced decreases in sucrose preference; also recorded: reversed chronic corticosterone-induced anhedonia”.
